Source: patent US6841577B2, “Pesticidal activity of plant essential oils and their constituents” (Ecosmart Technologies, Inc., priority 1999, dated 2005)
Where two headings read alike, the source gives them in different places.

What was measured:
[1] = test system: octopamine receptor sites; test: 3H-OA binding to ventral nerve cord / synaptosomal membrane protein; parameters: species or system American cockroach (Periplaneta americana); settings: for classification with respect to octopamine receptor sites (OAR): based on the binding data of Tables 1-3; for cpm 3H-OA/500 μg protein: Table 3
Protocol: Different concentrations of unlabeled octopamine (OA) (20, 30, 40, 50, 60, 100 ng) were tested on the binding activity as a positive control. Test chemicals were dissolved in acetone before the assay. Different concentrations of the test chemicals were added directly to the protein preparation from ventral nerve cord. The same amount of solvent (1 μl 0.1%) were added to the control samples. All assays with test chemicals were run in the presence and absence of 50 ng OA. All chemicals were added to the protein extract 20 min prior the addition of radio labeled ^3H-OA(100,000 cpm/sample). After 30 min at 24° C. of the addition of ^3H-OA, the reaction was stopped by the addition of ice-cold Tris buffer, and the samples were filtered through GF/C membrane using water vacuum. After two washes each with 5 ml Tris buffer, the membrane was removed, air dried and the radioactivity was counted in 4 ml liquid scintillation solution. The specific binding was calculated as the difference between the values in the presence and absence of unlabeled OA. All data are calculated as the mean±standard deviation of 5 assays.
Additional tests were conducted on radio labeled octopamine using other purified naturally occurring materials as given in Tables 2 and 3.

American cockroach = test: Cross walk jar test on pre-treated surface; type: in vivo; settings: for pesticidal activity against cockroaches, in words: in vivo
Protocol: In the test, a known amount of the test material was dissolved in a known volume of acetone and applied to small jars and all inner bottom surfaces were covered. The bottom surface of each jar is approximately 250 cm^2. One hour after the acetone had completely evaporated, five American cockroaches were introduced to each jar. Control jars were treated exactly as above but with the known amount of acetone only.
The results of the “cross walk” jar tests are in Table 8 in which the “4-blend” was dispersed as an aerosol and a dust in the jar.
In this test, the acetone solution of the test material was placed in the jar and the roach inserted into the jar after the acetone had evaporated.
Mortality was measured 24 hours after exposure.
The “4-blend” and the individual constituents of the “4-blend” were tested using 10 cockroaches for each “cross walk” treatment. In addition, pyrethrins were tested separately and mixed with the various components.
A concentration of 100 mg/jar was used for each individual alone. In the co-treatment experiment without pyrethrins, 20 mg/jar for each chemical was used. In the cotreatment experiment with pyrethrins, 20 mg/jar for the naturally occurring plant material was used. Pyrethrins was used at 2 mg/jar. […] It was noted above that the mortality is dependent upon concentration. […] Some synergism is found between pyrethrins and either α-terpineol or benzyl alcohol.

larvae = test: Feeding deterrence of carvacrol; type: in vivo; settings: on doubling the concentration
Source text: FIG. 6 is a graph of the feeding deterrence of carvacrol vs. larvae.
The 5-blend can be considered as a relatively broad spectrum pesticide. […] The effect of concentration of the pesticide is shown in […] where a doubling in the concentration of carvacrol produces a 3-4 fold increase in deterrence of feeding.

[2] = test system: 3rd instar Asian armyworms (Spodoptera litura); settings: for Mortality (%): control 0
Protocol: Additional synergistic testing was conducted on 3rd instar Asian armyworms (Spodoptera litura). […] The number of replicates is given as “n”.

[3] = test system: 2nd instar green peach aphid nymphs; test: Cabbage leaf disc bioassay; type: in vivo
Protocol: A bioassay similar to that for S. litura larvae was used for additional larvae. Cabbage leaf discs were dipped in emulsified aqueous solutions, diluted 1:200 in water, on which 2nd instar green peach aphid nymphs were placed. For each treatment there was 10 aphids per disc with 5 replicates; each experiment was replicated in time (successive days) from 3-5 times. After 24 hours, aphids were reported as being (1) on the leaf disc and feeding; (2) alive, but walking off the disc; or (3) dead. In the field, aphids which cease feeding and abandon a host plant are very unlikely to survive.

[4] = 500 ng/ml, solvent control 1385 ± 101

Structure (SMILES) | classification with respect to octopamine receptor sites (OAR) [1] | mortality at 10 mg (American cockroach; Periplaneta americana, 24 h) | mortality at 20 mg (American cockroach; Periplaneta americana, 24 h) | mortality at 40 mg (American cockroach; Periplaneta americana, 24 h) | mortality at 50 mg (American cockroach; Periplaneta americana, 24 h) | mortality at 100 mg (American cockroach; Periplaneta americana, 24 h) | pesticidal activity against cockroaches, in words (American cockroach) | cpm 3H-OA/500 μg protein [1, 4] | further results
Cc1ccc(C(C)C)cc1O [Carvacol, Carvacrol] | OAR Agonists | 0% | 20% | 50% | 80% | 100% | high pesticidal activity |  | agonist/antagonist note to 3H-OA binding ([1]; 1000 ng/ml): agonist; dpm 3H-OA/500 μg protein ([1]; 1000 ng/ml, Table 2, solvent control 930 ± 89): 2366 ± 149 dpm 3H-OA/500 μg protein; increase in deterrence of feeding (larvae): 3-4 fold
CCC(=O)OCCc1ccccc1 [Phenethyl propionate] | extremely high OAR antagonists | 30% | 40% | 90% | 100% | 100% | high pesticidal activity | 0173 ± 022 cpm 3H-OA/500 μg protein | activity/binding at octopamine receptor sites, in words [1]: antagonists which are most strongly bound; agonist/antagonist note to 3H-OA binding ([1]; 500 ng/ml): antagonist; mortality at 30 mg (American cockroach; Periplaneta americana, 24 h): 60%; activity on Asian armyworms, in words ([2]; in vivo): relatively low activity; activity on green peach aphid nymphs, in words ([3]; 1:200 dilution): essentially inactive; Percentage of aphids Dead ([3]; n = 250, Table 17, control 8.7): 13.3%; Percentage of aphids Walking (off disc) ([3]; n = 250, Table 17, control 15.3): 25.3%; Percentage of aphids Feeding ([3]; n = 250, Table 17, control 76.0): 62.0%
Cc1ccc(C(C)C)c(O)c1 [Thymol] | Non-OAR Specific Toxicants |  |  | 80% |  | 100% |  | 1310 ± 91 cpm 3H-OA/500 μg protein | cpm 3H-OA/500 μg protein ([1]; 1000 ng/ml, solvent control 1915 ± 110): 806 ± 71 cpm 3H-OA/500 μg protein; Mortality (%) ([2]; diluted 1:400 with water, n = 50, Table 12): 98%; Mortality (%) ([2]; dilution rate 1:500, n = 150, Table 14 right): 24.5%; Mortality (%) ([2]; n = 50, Table 13 right, 1:500 printed for Thymol only): 29%
